Like-named read-outs stand apart in the source and are kept apart here.
Legend:
Assay type in all cases: cell-based
L3055 cells [1] = assay: Mitochondrial depolarisation with JC-1 dye; details: following exposure to 5-HT; not shown
Method: Apoptosis was assessed by staining cells with acridine orange and visualising nuclear morphology exactly as described previously (Gordon J, et al. Cell Death. Diff. (2000); 7:785-794). Viable cells display a homogeneous chromatin-staining pattern, whereas apoptotic cells characteristically show condensed and fragmented chromatin. Mitochondrial depolarisation was assessed using the JC-1 cationic dye. Cells were incubated with 10 μM of JC-1 for 30 min before being visualised on a LSM 510 confocal microscope (Zeiss, Germany). […] Mitochondrial depolarisation is indicated by a decrease in the red/green fluorescence ratio.

L3055 cells [2] = assay: Syto 16 / propidium iodide staining (viable, apoptotic, necrotic); details: increasing concentrations, 24 hr
Method: (§1) Changes in the viability of cells cultured under conditions indicated below were quantified by assessment of forward and 90° (side) light scatter of cells as previously described (Dive C, et al. Biochimica Biophysica Acta (1992); 1133:275-285) using an EPICS XL-MCL flow cytometer (Beckman Coulter, Miami, Fla., USA). Prior to analysis, cells were harvested into polythene FACS tubes, and fixed at 4° C. in 400 μl of FACS buffer [PBS with 5% NGS and 2% Formaldehyde] (BDH/MERCK). Cells were gated in two populations (viable and dead) according to their forward and side light scatter. Viability was expressed as a percentage of the total number of cells residing in the viable and non-viable gates. Cells were also analysed according to Schuurhuis et al (Schuurhuis G J, et al. Exp. Haematol. (1997); 25:754-759) in order to assess the percentages within treated populations of those that were viable, apoptotic, or necrotic. Syto 16 was added at a concentration of 250 nM in PBS to 500,000 cells and incubated at RT for 30 min, at which time 5 μg/ml propidium iodide (PI) was added. Samples were then analysed immediately by FACS and a 2D plot generated of syto 16 fluorescence versus PI fluorescence: syto 16 is taken up only by viable cells whereas Pi exclusively enters necrotic cells—syto 16^−ve/PI^−ve cells are deemed apoptotic.

L3055 cells [3] = assay: Viability by FACS forward versus side light scatter
Method: as §1

L3055 cells [4] = assay: Cell cycle analysis (propidium iodide, flow cytometry); details: 24 hr; each at its maximal concentration (5-HT 150 μM, fluoxetine 10 μM, anti-μ chain antibody 10 μg/ml)
Method: Cells cultured under conditions indicated below were harvested into 100 μl of 1×PBS followed by 400 μl cell cycle buffer containing Triton X-100 and propidium iodide and left to incubate at 4° C. for 1 hr to allow staining of DNA. The degree of fluorescence emitted by bound PI is directly proportional to the amount of DNA in each cell and was measured by flow cytometry as previously described (MacDonald I, et al. Blood (1996); 87:1147-1154). Results are expressed as percentage of viable cells residing in each phase of the cycle.

[5] = system: Mutu III, an apoptosis resistant (group III) BL cell line; assay: DNA synthesis by [3H]-thymidine incorporation in Mutu III; details: 125 μM 5-HT, 24 hr
Method: (§2) DNA synthesis was determined by measuring ^3H-thymidine ([^3H]Tdr; Amersham, UK) incorporation into cellular DNA. Cells were cultured in 200 μL of supplemented medium at densities and for times indicated below in flat-bottomed, 96-well tissue culture plates (Becton Dickinson, Oxford, U K) then pulsed for the final 4 h with 50 μl of 10 μCi/ml [^3H]Tdr before harvesting on a Skatron cell harvester (Helis Bio Ltd, Newmarket, UK).
(§3) Three other group I BL cell lines were also investigated, namely: Mutu I, Elijah, and BL2.

L3055 BL cells = assay: DNA synthesis by [3H]-thymidine incorporation in L3055 cells; details: for inhibition at 50 µM: L3055, 5-HT 50 μM; for effect on DNA synthesis (in words): single dose, range of concentrations, [3H]-thymidine incorporation at 24 hr; for influence of pre-treatment on 5-HT-dependent inhibition of DNA synthesis (in words): cells pre-treated with agent before 5-HT
Method: as §2

L3055 cells [6] = assay: Caspase activity (FAM-VAD-FMK, FACS); details: for effect on number of cells showing caspase activity (in words): single dose for 24 hours, fluoxetine 10 μM, paroxetine 10 μM, citalopram 100 μM
Method: Caspase activity was detected using the CaspaTag Caspase Activity Kit (Intergen, Oxford, UK). Cells cultured under the conditions indicated below were harvested into 300 μl of culture medium at a cell density of 10^6cells/ml, followed by the addition of […] of a 30×working solution of FAM-VAD-FMK (a carboxy fluorescent tagged caspase inhibitor) (Intergen Co., USA). Cells were then incubated for 1 hr at 37° C. under 5% CO2 while protecting the tubes from light. At the end of the incubation, they were washed twice in 2 ml of 1×washing buffer, followed by addition of 2 μl of PI to distinguish dead cells from live cells, then analysed on an EPICS XL-MCL flow cytometer or by confocal microscopy. For the latter, treated cells were harvested into 300 μl of culture medium containing 10 μl of FAM-VAD-FMK before incubating for 1 hr under the conditions described above. Next, 1.5 μl of Hoechst 33342 stain was added for 5 min, and cells were washed twice in 2 ml of 1×washing buffer following the addition of 1 μl of PI.

[7] = system: group I BL cell lines Mutu I, Elijah, and BL2; assay: DNA synthesis by [3H]-thymidine incorporation in other group I BL cell lines; details: 125 μM 5-HT, 24 hr
Method: as §2, §3

L3055 cells [8] = assay: OxyDNA assay of oxidative damage to DNA; details: 6 hr; 150 μM 5-HT or 30 μM H2O2
Method: Oxidative damage to DNA was quantified using the OxyDNA assay (Biotrin, Dublin, Ireland). Following culture of cells under conditions indicated below, they were washed first in 1×PBS then in wash solution followed by addition of 100 μl of blocking solution with a 1 hr incubation at 37° C. On washing twice in working solution, cells were then incubated with 100 μl FITC-conjugate for 1 hr in the dark at RT before being washed twice in washing solution and once in PBS. Finally, cells were resuspended in FACS buffer and analysed on an EPICS XL-MCL flow cytometer.
While the above experiments offer evidence that oxidative stress was not the cause of 5-HT-induced apoptosis in BL cells, further more direct examination of the generation of potential reactive oxygen species (ROS) as a consequence of 5-HT uptake was undertaken. For this the OxyuDNA assay was used, which quantifies 8-oxo-7,8-dihydro-2′-deoxyguanosine (8-oxodGuo) residues that are generated as a result of oxidative damage to DNA (see methods section 1.1.8 above).

[9] = system: T-cell leukaemia line, Jurkat; assay: 5-HT sensitivity of Jurkat line; details: not shown
[10] = system: Bcl-2 transfected BL cell line; assay: Viability (FACS light scatter) of Bcl-2 transfected BL cell line
Method: Group I Burkitt's lymphoma cell lines L3055 (EBV^neg), BL2 (EBV^neg), Elijah (EBV^pos), and MUTU I (EBV^pos) were maintained in early passage as described previously (Baker M P, Eliopoulos E, Young L S, Armitage R J, Gregory C D, Gordon J. Blood (1998); 92:2830-2843). The late passage group III BL line MUTU III (EBV^pos) was also used with all cells cultured in RPMI 1640 medium supplemented with 10% Serum Supreme (BioWhittaker, Wokingham, UK), 2 mM glutamine, 100 IU/ml penicillin and 100 μg/ml streptomycin. […]
Changes in the viability of cells cultured under conditions indicated below were quantified by assessment of forward and 90° (side) light scatter of cells as previously described (Dive C, et al. Biochimica Biophysica Acta (1992); 1133:275-285) using an EPICS XL-MCL flow cytometer (Beckman Coulter, Miami, Fla., USA). […] Viability was expressed as a percentage of the total number of cells residing in the viable and non-viable gates. Cells were also analysed according to Schuurhuis et al (Schuurhuis G J, et al. Exp. Haematol. (1997); 25:754-759) in order to assess the percentages within treated populations of those that were viable, apoptotic, or necrotic. […]

L3055 cells [11] = assay: Intracellular free Ca2+; details: data not shown
Description: The increase in intracellular free Ca^2+ is known to be an important step in the induction of apoptosis.

Structure (SMILES): NCCc1c[nH]c2ccc(O)cc12 [Example 5-HT, Serotonin]
- mitochondrial membrane potential (in words) (L3055 cells [1]): loss of mitochondrial membrane potential
- number of viable cells (syto 16+ve/PI−ve) (in words) (L3055 cells [2]): decreased in a concentration-dependent manner
- cells with light scatter characteristics of dead cells (in words) (L3055 cells [3]; 1 to 150 μM, 24 hr): dramatic concentration-dependent increase in the number of L3055 cells acquiring light scatter characteristics of dead cells
- viability at 150 µM (L3055 cells [3]; L3055, 24 h, read-out: % viable cells (24 h)): 21.3 ± 8.65%
- cell cycle status (in words) (L3055 cells [4]): accumulation of arresting cells in the G0/G1 compartment
- effect on DNA synthesis (in words) [5]: only marginally decreased DNA synthesis
- effect on level of DNA synthesis (in words) (L3055 BL cells; 1 μM 5-HT, very early passage, lower cell numbers, data not shown): significant reduction
- inhibition at 50 µM (L3055 BL cells; cells plated at 2×10^4 per well): ~35%
- inhibition at 50 µM (L3055 BL cells; cells plated at 5×10^3 per well): > 90%
- inhibition at 50 µM (L3055 BL cells; cells plated at 10^4 per well): ~70%
- IC50 (L3055 BL cells; L3055, read-out: 5-HT required to achieve 50% inhibition of DNA synthesis, plated at 2.5×10^4 per ml (5×10^3 per well)): ~5 µM
- IC50 (L3055 BL cells; L3055, read-out: 5-HT required to achieve 50% inhibition of DNA synthesis, plating density 10^5 per ml (2×10^4/well)): > 50 µM
- effect on DNA synthesis (in words) (L3055 BL cells): caused a reduction in DNA synthesis in a concentration-dependent manner
- % caspase activation (6 h) (L3055 cells [6]; 5-HT 150 μM, fluoxetine 5 μM, paroxetine 2 μM, citalopram 10 μM, means ± S.E.M. of 3, control 27.3 ± 1.20): 58.3 ± 2.03%
- percentage of cells showing caspase activity (L3055 cells [6]; 6 hr 5-HT treatment, background level 29%): 59%
- effect on DNA synthesis (in words) [7]: substantial decrease in DNA synthesis
- level of oxidatively damaged DNA (8-oxoguanosine residues) (in words) (L3055 cells [8]): no increase in the level of oxidatively damaged DNA
- sensitivity to 5-HT actions (in words) [9]: insensitive

Structure (SMILES): OO [Example H2O2, H2O2]
- level of oxidatively damaged DNA (8-oxoguanosine residues) (in words) (L3055 cells [8]): large increase in the level of 8-oxoguanosine residues generated

Structure (SMILES): CCN(CC)CCOC(=O)c1cc(Cl)c(N)cc1OC [SDZ205-557]
- influence of pre-treatment on 5-HT-dependent inhibition of DNA synthesis (in words) (L3055 BL cells): failed to influence the ability of 5-HT to inhibit DNA synthesis

Structure (SMILES): C#CCN(C)CCCOc1ccc(Cl)cc1Cl [clorgyline]
- influence of pre-treatment on 5-HT-dependent inhibition of DNA synthesis (in words) (L3055 BL cells): the same outcome was observed

Structure (SMILES): C#CCN(C)[C@H](C)Cc1ccccc1 [deprenyl]
- influence of pre-treatment on 5-HT-dependent inhibition of DNA synthesis (in words) (L3055 BL cells): the same outcome was observed

Structure (SMILES): CN(C)CCCN1c2ccccc2CCc2ccccc21 [imipramine]
- cell killing in Bcl-2 transfected versus native BL cell line (in words) ([10]; 24 hrs): greatly reduced
- survival (live cells) ([10]; Bcl-2 transfected BL cell line (panel II, FIG. 26)): 91%
- survival (live cells) (L3055 cells [3]; native cell line (panel I, FIG. 26)): 30%
- effect on DNA synthesis (in words) (L3055 BL cells): dose dependant effect
- effect on number of cells showing caspase activity (in words) (L3055 cells [6]): significant effect on the number of cells exhibiting caspase activity

Structure (SMILES): C#CCN(C)Cc1ccccc1 [pargyline]
- effect of agent by itself on DNA synthesis (in words) (L3055 BL cells; 100 μM pargyline, no 5-HT): no deleterious effect by itself
- influence of pre-treatment on 5-HT-dependent inhibition of DNA synthesis (in words) (L3055 BL cells): failed to influence 5-HT-induced cessation of DNA synthesis

Structure (SMILES): Fc1ccc([C@@H]2CCNC[C@H]2COc2ccc3c(c2)OCO3)cc1 [paroxetine]
- influence of pre-treatment on 5-HT-dependent inhibition of DNA synthesis (in words) (L3055 BL cells): substantially reversed
- effect on DNA synthesis (in words) (L3055 BL cells): dose dependent inhibitory effect
- effect on number of cells showing caspase activity (in words) (L3055 cells [6]): significant effect on the numbers of cells showing caspase activity
- basal Ca2+ (in words) (L3055 cells [11]): increase in basal Ca^2+

Reference: US20050182002A1, “Agents which interact with a serotonin transporter for the treatment of cancer” (priority 2002, published 2005)
